Non-standard residues stand in square brackets, D forms with d. *: point of attachment. Palmitoyl = CCCCCCCCCCCCCCCC(=O)*; Orn = NCCC[C@H](N)C(=O)O; Dap = NC[C@H](N)C(=O)O; Dbu = Diaminobutyryl; NHHex = CCCCCCN*
Tests used:
[1] = tested on: human fibulin-5 gene promoter; experiment: Luminescence assay of human fibulin-5 gene promoter activation (Firefly luciferase); format: cell-based; conditions: 16-24 hours
Description: (§1) The effect of the compounds of the invention on the activity of the fibulin-5 and LOXL1 promoters was studied and compared to the levels of basal expression of the untreated cells (negative control) and with the effect of Interleukin-1β (IL-1β) in the same conditions.
(§2) Cells from an epithelial cell line doubly transfected with fibulin-5 and LOXL1 human promoters in which the luciferase gene is under the regulatory control of said promoters (4×10^4 cells/well) were seeded in a white plate and in a 96-well transparent plate, both treated with polylysine, and were incubated in Dulbecco's Modified Eagle Medium (DMEM-Glutamax™), with 10% of FBS, 1% Penicillin-Streptomycin (P/S), 1 mg/ml of Geneticin® (G418) and […] at 37° C. in at atmosphere with 5% CO2. After the incubation, the cells were incubated for 6 hours at 37° C. in at atmosphere with 5% CO2 with DMEM without serum. Then, this medium was removed and the cells were treated with different compounds at 0.1 mg/ml, 0.5 mg/ml, 1 mg/ml or 2 mg/mL in DMEM/1% FBS for 16-24 hours. As a positive control to activate the fibulin-5 and LOXL1 promoters 10 ng/ml of IL-1β were used and as a negative control untreated cells were used, just with DMEM/1% FBS. The incubations and treatments were carried out in parallel in the white plate and the transparent plate and in triplicate for each condition. After the treatment, the relative light units per second were determined (RLU/s) in the white plate by means of consecutive quantification of the activities of Firefly luciferase (fibulin-5 promoter) and Renilla luciferase (LOXL1 promoter), and the number of total cells/well in the transparent plate by means of staining with Crystal Violet (CV). To determine the Firefly and Renilla luciferase activities the Dual-Glo Luciferase Assay System kit by Promega was used. The cells were briefly lysed and the Firefly luciferase substrate was added. After incubating for 10 min at 25° C., the RLU/s were quantified by luminescence reader (Lumistar-BMG). Then the Firefly signal was extinguished and the Renilla luciferase substrate was added. After incubating for 5 min at 25° C., the RLU/s were quantified by the same luminescence reader. With regard to the determination of the total number of cells by Crystal Violet, the CV dyes the DNA of the cells and the quantity of dye taken by the cells can be measured in an absorbency reader at 630 nm (Multiskan Ascent). The color obtained is directly proportional to the total number of cells per well. The cells were briefly incubated with 0.05% CV plus 4% Formalin for 20 minutes and after several washes with Milli-Q water, the cells were left to dry for 1-2 hours and then 0.1 M of HCl was added for its immediate reading. The RLU/s of the luciferases corresponding to each promoter were normalized by the average of the total number of cells per condition. Three independent assays with 3 measurements per assay were carried out for Ac-L-Asp-L-Val-L-Lys-L-Tyr-OH at 0.1 mg/mL and 1 mg/mL. 1 assay with 3 measurements was carried out for the other compounds and concentrations.
(§3) The increase in the activity of the promoters with regard to the levels of expression of the negative control was determined.

[2] = tested on: human LOXL1 gene promoter; experiment: Luminescence assay of human LOXL1 gene promoter activation (Renilla luciferase); format: cell-based; conditions: 16-24 hours
Description: as §1, §2, §3

Row | Substance | Increase in the activity of the human promoter of the FIBULIN 5 gene with regard to the negative control ([1]; 2 mg/mL) | Increase in the activity of the human promoter of the LOXL1 gene with regard to the negative control ([2]; 2 mg/mL) | further results
1 | Ac-Gly-L-Gln-L-Lys(Ac-Gly-L-Gln)-4-Abz-NH2 |  |  | Increase in the activity of the human promoter of the FIBULIN 5 gene with regard to the negative control ([1]; 0.5 mg/mL): 17%; Increase in the activity of the human promoter of the LOXL1 gene with regard to the negative control ([2]; 0.5 mg/mL): 79%
2 | Ac-L-Asp-L-Leu-L-Lys-L-Tyr-OH (Ac-DLKY-OH) | 15.42% | 14.96% | 
3 | Ac-L-Asn-L-IIe-L-Dpr-L-Tyr-OH (Ac-NI[Dap]Y-OH; SMILES CC[C@H](C)[C@H](NC(=O)[C@H](CC(N)=O)NC(C)=O)C(=O)N[C@@H](CN)C(=O)N[C@@H](Cc1ccc(O)cc1)C(=O)O) | 41.79% | 8.75% | 
4 | Ac-L-Asp-L-Ile-L-Lys-L-Tyr-NH(n-hexadecyl) (Ac-DIKY-{NH(n-hexadecyl)}) | 59.33% | 27.08% | 
5 | Ac-L-Gln-L-Met-L-Lys-L-Tyr-OH (Ac-QMKY-OH) | 6.05% | 28.48% | 
6 | Ac-L-Glu-L-Val-L-Lys-L-Tyr-OH (Ac-EVKY-OH) | 27.45% | 5.59% | 
7 | Ac-L-Asp-L-Val-L-Orn-L-Tyr-OH (Ac-DV[Orn]Y-OH; SMILES CC(=O)N[C@@H](CC(=O)O)C(=O)N[C@H](C(=O)N[C@@H](CCCN)C(=O)N[C@@H](Cc1ccc(O)cc1)C(=O)O)C(C)C) | 44.60% | 28.35% | 
8 | Ac-Asn-L-His-L-Lys(Ac-Asn-L-His)-4-Abz-NH2 |  |  | Increase in the activity of the human promoter of the FIBULIN 5 gene with regard to the negative control ([1]; 0.5 mg/mL): 53%; Increase in the activity of the human promoter of the LOXL1 gene with regard to the negative control ([2]; 0.5 mg/mL): 47%
9 | Ac-L-Gln-L-Val-L-Lys-L-Trp-NH2 (Ac-QVKW-NH2) | 38.10% | 18.08% | 
10 | H-L-Gln-L-Val-L-Orn-L-Tyr-OH (H-QV[Orn]Y-OH; SMILES CC(C)[C@H](NC(=O)[C@@H](N)CCC(N)=O)C(=O)N[C@@H](CCCN)C(=O)N[C@@H](Cc1ccc(O)cc1)C(=O)O) | 7.04% | 25.84% | 
11 | Ac-L-Asn-L-Val-L-Dpr-L-Tyr-OH (Ac-NV[Dap]Y-OH; SMILES CC(=O)N[C@@H](CC(N)=O)C(=O)N[C@H](C(=O)N[C@@H](CN)C(=O)N[C@@H](Cc1ccc(O)cc1)C(=O)O)C(C)C) | 35.49% | 3.99% | 
12 | Palm-L-Asn-L-Ile-L-Orn-L-Trp-NH(n-hexyl) (Palmitoyl-NI[Orn]W-NHHex; SMILES CCCCCCCCCCCCCCCC(=O)N[C@@H](CC(N)=O)C(=O)N[C@H](C(=O)N[C@@H](CCCN)C(=O)N[C@@H](Cc1c[nH]c2ccccc12)C(=O)NCCCCCC)[C@@H](C)CC) |  |  | Increase in the activity of the human promoter of the FIBULIN 5 gene with regard to the negative control ([1]; 1 mg/mL): 43.65%; Increase in the activity of the human promoter of the LOXL1 gene with regard to the negative control ([2]; 1 mg/mL): 18.48%
13 | H-L-Asn-L-Leu-L-Lys-L-Tyr-OH (H-NLKY-OH) | 9.69% | 16.67% | 
14 | H-L-Gln-L-Ile-L-Orn-L-Tyr-OH (H-QI[Orn]Y-OH; SMILES CC[C@H](C)[C@H](NC(=O)[C@@H](N)CCC(N)=O)C(=O)N[C@@H](CCCN)C(=O)N[C@@H](Cc1ccc(O)cc1)C(=O)O) | 4.41% | 47.99% | 
15 | Palm-L-Asp-L-Val-L-Lys-L-Tyr-OH (Palmitoyl-DVKY-OH; SMILES CCCCCCCCCCCCCCCC(=O)N[C@@H](CC(=O)O)C(=O)N[C@H](C(=O)N[C@@H](CCCCN)C(=O)N[C@@H](Cc1ccc(O)cc1)C(=O)O)C(C)C) | 32.47% | 25.17% | 
16 | Ac-L-Asp-L-Met-L-Lys-L-Tyr-OH (Ac-DMKY-OH) | 14.36% | 32.85% | 
17 | Ac-L-Gln-L-Val-L-Dbu-L-Trp-NH2 (Ac-QV[Dbu]W-NH2) | 26.39% | 68.94% | 
18 | Ac-L-Asn-L-Thr-L-Lys(Ac-L-Asn-L-Thr)-4-Abz-NH2 |  |  | Increase in the activity of the human promoter of the FIBULIN 5 gene with regard to the negative control ([1]; 0.5 mg/mL): 39%; Increase in the activity of the human promoter of the LOXL1 gene with regard to the negative control ([2]; 0.5 mg/mL): 51%
19 | Ac-L-Lys-L-Cit-L-Lys(Ac-L-Lys-L-Cit)-4-Abz-NH2 |  |  | Increase in the activity of the human promoter of the FIBULIN 5 gene with regard to the negative control ([1]; 0.5 mg/mL): 21%; Increase in the activity of the human promoter of the LOXL1 gene with regard to the negative control ([2]; 0.5 mg/mL): 22%
20 | Ac-L-Asn-L-Ile-L-Lys-L-Tyr-OH (Ac-NIKY-OH) | 12.25% | 9.83% | 
21 | Ac-L-Glu-L-Val-L-Lys-L-Trp-OH (Ac-EVKW-OH) | 10.92% | 22.22% | 
22 | Ac-L-Asp-L-Val-L-Lys-L-Tyr-NH(n-hexyl) (Ac-DVKY-NHHex; SMILES CCCCCCNC(=O)[C@H](Cc1ccc(O)cc1)NC(=O)[C@H](CCCCN)NC(=O)[C@@H](NC(=O)[C@H](CC(=O)O)NC(C)=O)C(C)C) | 18.11% | 7.54% | 
23 | Ac-L-Gln-L-Val-L-Lys-L-Tyr-OH (Ac-QVKY-OH) | 19.79% | 22.61% | 
24 | H-L-Asp-L-Val-L-Lys-L-Tyr-OH (H-DVKY-OH) | 41.93% | 21.82% | 
25 | Ac-L-Asp-L-Val-L-Dbu-L-Tyr-OH (Ac-DV[Dbu]Y-OH) | 17.08% | 28.10% | 
26 | Ac-L-Asp-L-Val-L-Lys-L-Tyr-NH2 (Ac-DVKY-NH2) | 30.26% | 22.87% | 
